Measured values reported in paper PMC10461229 (Journal of Medicinal Chemistry, 2023).
Read-outs that look alike come from different tables or passages of the source.

Tested on: wild-type (WT) Mtb Erdman
Assay: microbe, parasite or virus in culture
Assay type: cell-based, Mycobacterium tuberculosis
Conditions: read-out: MABA mean IC50 ± SD
[1] = Mycobacterium tuberculosis, ERDMAN

Compound | IC50 [1] | IC50
O=C(O)C1CSc2c(C3CC3)c(CSc3nnc(-c4cccc5ccccc45)o3)cc(=O)n21 (racemic) [Compound 8a, (±) 8-Cyclopropyl-7-(((5-(naphthalen-1-yl)-1,3,4-oxadiazol-2-yl)thio)methyl)-5-oxo-2,3-dihydro-5H-thiazolo[3,2-a]pyridine-3-carboxylic Acid] | 12.6 ± 2.16 µM | –
O=C(O)C1CSc2c(C3CC3)c(CSc3nnc(Cc4cccc5ccccc45)o3)cc(=O)n21 (racemic) [Compound 8c, (±) 8-Cyclopropyl-7-(((5-(naphthalen-1-ylmethyl)-1,3,4-oxadiazol-2-yl)thio)methyl)-5-oxo-2,3-dihydro-5H-thiazolo[3,2-a]pyridine-3-carboxylic Acid] | > 25 µM | –
O=C(O)C1CSc2c(C3CC3)c(CSc3nnc(-c4ccc5ccccc5c4)o3)cc(=O)n21 (racemic) [Compound 8d, (±) 8-Cyclopropyl-7-(((5-(naphthalen-2-yl)-1,3,4-oxadiazol-2-yl)thio)methyl)-5-oxo-2,3-dihydro-5H-thiazolo[3,2-a]pyridine-3-carboxylic Acid] | 3.5 µM | 3.53 ± 1.9 µM
O=C(O)C1CSc2c(C3CC3)c(CSc3nnc(Cc4ccc5ccccc5c4)o3)cc(=O)n21 (racemic) [Compound 8e, (±) 8-Cyclopropyl-7-(((5-(naphthalen-2-ylmethyl)-1,3,4-oxadiazol-2-yl)thio)methyl)-5-oxo-2,3-dihydro-5H-thiazolo[3,2-a]pyridine-3-carboxylic Acid] | > 25 µM | –
O=C(O)C1CSc2c(C3CC3)c(CSc3nnc(-c4ccc([N+](=O)[O-])cc4)o3)cc(=O)n21 (racemic) [Compound 8g, (±) 8-Cyclopropyl-7-(((5-(4-nitrophenyl)-1,3,4-oxadiazol-2-yl)thio)methyl)-5-oxo-2,3-dihydro-5H-thiazolo[3,2-a]pyridine-3-carboxylic Acid] | > 25 µM | –
COc1cccc(-c2nnc(SCc3cc(=O)n4c(c3C3CC3)SCC4C(=O)O)o2)c1 (racemic) [Compound 8h, (±) 8-Cyclopropyl-7-(((5-(3-methoxyphenyl)-1,3,4-oxadiazol-2-yl)thio)methyl)-5-oxo-2,3-dihydro-5H-thiazolo[3,2-a]pyridine-3-carboxylic Acid] | > 25 µM | –
O=C(O)C1CSc2c(C3CC3)c(CSc3nnc(-c4ccncc4)o3)cc(=O)n21 (racemic) [Compound 8i, (±) 8-Cyclopropyl-5-oxo-7-(((5-(pyridin-4-yl)-1,3,4-oxadiazol-2-yl)thio)methyl)-2,3-dihydro-5H-thiazolo[3,2-a]pyridine-3-carboxylic Acid] | > 25 µM | –
O=C(O)C1CSc2c(C3CC3)c(CSc3nnc(-c4cccs4)o3)cc(=O)n21 (racemic) [Compound 8j, (±) 8-Cyclopropyl-5-oxo-7-(((5-(thiophen-2-yl)-1,3,4-oxadiazol-2-yl)thio)methyl)-2,3-dihydro-5H-thiazolo[3,2-a]pyridine-3-carboxylic Acid] | > 25 µM | –
O=C(O)C1CSc2c(C3CC3)c(CSc3nnc(-c4ccco4)o3)cc(=O)n21 (racemic) [Compound 8k, (±) 8-Cyclopropyl-7-(((5-(furan-2-yl)-1,3,4-oxadiazol-2-yl)thio)methyl)-5-oxo-2,3-dihydro-5H-thiazolo[3,2-a]pyridine-3-carboxylic Acid] | > 25 µM | –
O=C(O)C1CSc2c(C3CC3)c(CSc3nnc(COc4ccc(F)cc4)o3)cc(=O)n21 (racemic) [Compound 8l, (±) 8-Cyclopropyl-7-(((5-((4-fluorophenoxy)methyl)-1,3,4-oxadiazol-2-yl)thio)methyl)-5-oxo-2,3-dihydro-5H-thiazolo[3,2-a]pyridine-3-carboxylic Acid] | > 25 µM | –
O=C(O)C1CSc2c(C3CC3)c(-c3nc4ccccc4[nH]3)cc(=O)n21 (racemic) [Compound 10, (±) 7-(1H-benzo[d]imidazole-2-yl)-8-cyclopropyl-5-oxo-2,3-dihydro-5H-thiazolo[3,2-a]pyridine-3-carboxylic Acid] | > 25 µM | –
O=C(O)C1CSc2c(C3CC3)c(-c3nc4ccccc4o3)cc(=O)n21 (racemic) [Compound 13, (±) 7-(Benzo[d]oxazol-2-yl)-8-cyclopropyl-5-oxo-2,3-dihydro-5H-thiazolo[3,2-a]pyridine-3-carboxylic Acid] | > 25 µM | –
O=C(O)C1CSc2c(C3CC3)c(-c3cn(-c4cccc5ccccc45)nn3)cc(=O)n21 (racemic) [Compound 15a, (±) 8-Cyclopropyl-7-(1-(naphthalen-1-yl)-1H-1,2,3-triazol-4-yl)-5-oxo-2,3-dihydro-5H-thiazolo[3,2-a]pyridine-3-carboxylic Acid] | > 25 µM | –
O=C(O)C1CSc2c(C3CC3)c(-c3cn(-c4cccc(C(F)(F)F)c4)nn3)cc(=O)n21 (racemic) [Compound 15b, (±) 8-Cyclopropyl-5-oxo-7-(1-(3-(trifluoromethyl)phenyl)-1H-1,2,3-triazol-4-yl)-2,3-dihydro-5H-thiazolo[3,2-a]pyridine-3-carboxylic Acid] | > 25 µM | –
O=C(O)C1CSc2c(C3CC3)c(-c3cn(-c4ccc5ccccc5c4)nn3)cc(=O)n21 (racemic) [Compound 15c, (±) 8-Cyclopropyl-7-(1-(naphthalen-2-yl)-1H-1,2,3-triazol-4-yl)-5-oxo-2,3-dihydro-5H-thiazolo[3,2-a]pyridine-3-carboxylic Acid] | 7.37 ± 0.83 µM | –
O=C(O)C1CSc2c(C3CC3)c(-c3cc(-c4cccc5ccccc45)no3)cc(=O)n21 (racemic) [Compound 17a, (±) 8-Cyclopropyl-7-(3-(naphthalen-1-yl)isoxazol-5-yl)-5-oxo-2,3-dihydro-5H-thiazolo[3,2-a]pyridine-3-carboxylic Acid] | 1.86 ± 1.13 µM | –
O=C(O)C1CSc2c(C3CC3)c(-c3cc(-c4cccc(C(F)(F)F)c4)no3)cc(=O)n21 (racemic) [Compound 17b, (±) 8-Cyclopropyl-5-oxo-7-(3-(3-(trifluoromethyl)phenyl)isoxazol-5-yl)-2,3-dihydro-5H-thiazolo[3,2-a]pyridine-3-carboxylic Acid] | 3.04 ± 0.58 µM | –
O=C(O)C1CSc2c(C3CC3)c(-c3cc(C4CC4)no3)cc(=O)n21 (racemic) [Compound 17c, (±) 8-Cyclopropyl-7-(3-cyclopropylisoxazol-5-yl)-5-oxo-2,3-dihydro-5H-thiazolo[3,2-a]pyridine-3-carboxylic Acid] | > 25 µM | –
O=C(O)C1CSc2c(C3CC3)c(-c3cc(C4CCCCC4)no3)cc(=O)n21 (racemic) [Compound 17d, (±) 7-(3-Cyclohexylisoxazol-5-yl)-8-cyclopropyl-5-oxo-2,3-dihydro-5H-thiazolo[3,2-a]pyridine-3-carboxylic Acid] | > 25 µM | –
COc1ccc(-c2cc(-c3cc(=O)n4c(c3C3CC3)SCC4C(=O)O)on2)cc1 (racemic) [Compound 17e, (±) 8-Cyclopropyl-7-(3-(4-methoxyphenyl)isoxazol-5-yl)-5-oxo-2,3-dihydro-5H-thiazolo[3,2-a]pyridine-3-carboxylic Acid] | 2.62 ± 0.28 µM | –
O=C(O)C1CSc2c(C3CC3)c(-c3cc(-c4ccc([N+](=O)[O-])cc4)no3)cc(=O)n21 (racemic) [Compound 17f, (±) 8-Cyclopropyl-7-(3-(4-nitrophenyl)isoxazol-5-yl)-5-oxo-2,3-dihydro-5H-thiazolo[3,2-a]pyridine-3-carboxylic Acid] | 9.27 ± 0.62 µM | –
O=C(O)C1CSc2c(C3CC3)c(-c3cc(-c4c5ccccc5cc5ccccc45)no3)cc(=O)n21 (racemic) [Compound 17i, (±) 7-(3-(Anthracen-9-yl)isoxazol-5-yl)-8-cyclopropyl-5-oxo-2,3-dihydro-5H-thiazolo[3,2-a]pyridine-3-carboxylic Acid] | 1.56 ± 0.31 µM | –
CC(C)(C)c1cc(-c2cc(-c3cc(=O)n4c(c3C3CC3)SCC4C(=O)O)on2)cc(C(C)(C)C)c1 (racemic) [Compound 17k, (±) 8-Cyclopropyl-7-(3-(3,5-di-tert-butylphenyl)isoxazol-5-yl)-5-oxo-2,3-dihydro-5H-thiazolo[3,2-a]pyridine-3-carboxylic Acid] | 3.13 ± 0.16 µM | –
O=C(O)C1CSc2c(C3CC3)c(-c3cc(-c4cc(F)cc(F)c4)no3)cc(=O)n21 (racemic) [Compound 17l, (±) 8-Cyclopropyl-7-(3-(3,5-difluorophenyl)isoxazol-5-yl)-5-oxo-2,3-dihydro-5H-thiazolo[3,2-a]pyridine-3-carboxylic Acid] | 23.6 ± 1.51 µM | –
O=C(O)C1CSc2c(C3CC3)c(-c3cc(-c4ccc(F)c5ccccc45)no3)cc(=O)n21 (racemic) [Compound 17m, (±) 8-Cyclopropyl-7-(3-(4-fluoronaphthalen-1-yl)isoxazol-5-yl)-5-oxo-2,3-dihydro-5H-thiazolo[3,2-a]pyridine-3-carboxylic Acid] | 4 ± 0.67 µM | –
O=C(O)C1CSc2c(C3CC3)c(-c3cc(-c4cccs4)no3)cc(=O)n21 (racemic) [Compound 17n, (±) 8-Cyclopropyl-5-oxo-7-(3-(thiophen-2-yl)isoxazol-5-yl)-2,3-dihydro-5H-thiazolo[3,2-a]pyridine-3-carboxylic Acid] | > 25 µM | –
O=C(O)C1CSc2c(C3CC3)c(-c3cc(-c4ccc5c(c4)OCO5)no3)cc(=O)n21 (racemic) [Compound 17o, (±) 7-(3-(Benzo[d][1,3]dioxol-5-yl)isoxazol-5-yl)-8-cyclopropyl-5-oxo-2,3-dihydro-5H-thiazolo[3,2-a]pyridine-3-carboxylic Acid] | 2.02 ± 0.46 µM | –
O=C(O)C1CSc2c(C3CC3)c(-c3cc(-c4ccnc5ccccc45)no3)cc(=O)n21 (racemic) [Compound 17p, (±) 8-Cyclopropyl-5-oxo-7-(3-(quinolin-4-yl)isoxazol-5-yl)-2,3-dihydro-5H-thiazolo[3,2-a]pyridine-3-carboxylic Acid] | 11 ± 1.48 µM | –
O=C(O)C1CSc2c(C3CC3)c(-c3cc(-c4cccc5ccccc45)on3)cc(=O)n21 (racemic) [Compound 19a, (±) 8-Cyclopropyl-7-(5-(naphthalen-1-yl)isoxazol-3-yl)-5-oxo-2,3-dihydro-5H-thiazolo[3,2-a]pyridine-3-carboxylic Acid] | 3.9 ± 1.43 µM | –
O=C(O)C1CSc2c(C3CC3)c(-c3cc(-c4cccc(C(F)(F)F)c4)on3)cc(=O)n21 (racemic) [Compound 19b, (±) 8-Cyclopropyl-5-oxo-7-(5-(3-(trifluoromethyl)phenyl)isoxazol-3-yl)-2,3-dihydro-5H-thiazolo[3,2-a]pyridine-3-carboxylic Acid] | 5.09 ± 1.3 µM | –
